Results taken from PMC7024175, “In Depth Analysis of Kinase Cross Screening Data to Identify CAMKK2 Inhibitory Scaffolds” (Molecules, 2020).
Read-outs that look alike come from different tables or passages of the source.

Target: T1, CAMKK2 (Homo sapiens, UniProt Q96RR4)
T1 construct: made in house
Assay: CAMKK2 enzyme assay (radiometric, CaMKKtide)
Type: biochemical
Conditions: for remaining activity at 0.01 µM / remaining activity at 0.1 µM / remaining activity at 1 µM: read-out: PoC (activity remaining); for IC50: 8-point full dose response, read-out: IC50
Method: CAMKK2 activity was determined by measuring the transfer of radiolabeled phosphate from [γ-^32P]-ATP to a synthetic peptide substrate (CaMKKtide) as previously described [49]. Briefly, purified recombinant CAMKK2 (100 pM) was incubated in assay buffer (50 mM HEPES [pH 7.4], 1 mM DTT, 0.02% [v/v] Brij-35) containing 200 μM CaMKKtide (Genscript), 100 μM CaCl2, 1 μM CaM (Sigma-Aldrich, Castle Hill, NSW, Australia) 200 μM [γ-^32P]-ATP (Perkin Elmer, Boston, MA, USA), 5 mM MgCl2 (Sigma-Aldrich, Castle Hill, NSW, Australia) and various concentrations of inhibitors (0–1 μM) in a standard 30 μl assay for 10 min at 30 °C. Reactions were terminated by spotting 15 μl onto P81 phosphocellulose paper (GE Lifesciences, Paramatta, NSW, Australia) and washing extensively in 1% phosphoric acid (Sigma-Aldrich, Castle Hill, NSW, Australia). Radioactivity was quantified by liquid scintillation counting.

T1 sequence (Q96RR4 whole entry): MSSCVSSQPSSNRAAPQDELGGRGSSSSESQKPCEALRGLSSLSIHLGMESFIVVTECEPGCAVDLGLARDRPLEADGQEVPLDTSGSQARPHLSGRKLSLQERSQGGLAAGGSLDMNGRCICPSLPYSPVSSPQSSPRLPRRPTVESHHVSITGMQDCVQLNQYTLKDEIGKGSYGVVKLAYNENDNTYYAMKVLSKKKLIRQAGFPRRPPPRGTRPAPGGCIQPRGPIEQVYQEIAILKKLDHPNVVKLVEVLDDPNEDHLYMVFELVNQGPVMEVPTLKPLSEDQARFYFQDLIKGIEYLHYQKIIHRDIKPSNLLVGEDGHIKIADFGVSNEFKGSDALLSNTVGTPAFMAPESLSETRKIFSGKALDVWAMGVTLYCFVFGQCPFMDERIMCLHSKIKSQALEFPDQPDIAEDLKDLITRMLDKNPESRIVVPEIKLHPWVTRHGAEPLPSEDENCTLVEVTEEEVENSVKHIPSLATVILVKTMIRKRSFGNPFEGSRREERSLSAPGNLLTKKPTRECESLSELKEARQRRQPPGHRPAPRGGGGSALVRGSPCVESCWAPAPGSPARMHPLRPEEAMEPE

SMILES | PoC (activity remaining) (0.01 µM inhibitor) [%] | PoC (activity remaining) (1.0 µM inhibitor) [%] | remaining activity at 0.01 µM (0.01 µM inhibitor) [%] | remaining activity at 0.1 µM (0.1 µM inhibitor) [%] | remaining activity at 1 µM (1.0 µM inhibitor) [%] | PoC (activity remaining) (0.1 µM inhibitor) [%] | further results
COC(=O)[C@@]1(O)C[C@H]2O[C@]1(C)n1c3ccccc3c3c4c(c5c6ccccc6n2c5c31)C(=O)NC4 [K252a] | 99 | 31 |  |  |  |  | 
O=C(c1ccc(/C=C/c2n[nH]c3ccccc23)cc1)N1CCNCC1 [KW2449] |  |  | 96 | 84 | 42 |  | 
c1ccc2c(-c3cnn4cc(-c5ccc(N6CCNCC6)cc5)cnc34)ccnc2c1 [LDN 193189] | 68 | 50 |  |  |  | 62 | IC50: 146 nM
C[C@]12O[C@H](C[C@]1(O)CO)n1c3ccccc3c3c4c(c5c6ccccc6n2c5c31)CNC4=O [Lestaurtinib] |  |  |  |  |  |  | remaining activity at 0.01 µM: 64%; remaining activity at 0.1 µM: 33%; remaining activity at 1 µM: 3%
C=CCn1c(=O)c2cnc(Nc3ccc(N4CCN(C)CC4)cc3)nc2n1-c1cccc(C(C)(C)O)n1 [MK1775] |  |  | 101 | 99 | 99 |  | 
Cc1ncc(CCCN(C)C)cc1Nc1ncc2c(n1)-c1ccc(C(F)(F)F)cc1NC(=S)C2 [MLN 0905] | 99 | 86 |  |  |  | 95 | 
O=C(NCCCNc1nc(Nc2cccc(CN3CCOCC3)c2)ncc1C1CC1)C1CCC1 [MRT67307] | 92 | 35 |  |  |  | 86 | 
CO[C@@H]1[C@H](N(C)C(=O)c2ccccc2)C[C@H]2O[C@]1(C)n1c3ccccc3c3c4c(c5c6ccccc6n2c5c31)C(=O)NC4 [Midostaurin] |  |  |  |  |  |  | remaining activity at 0.01 µM: 97%; remaining activity at 0.1 µM: 82%; remaining activity at 1 µM: 38%
CNC(=O)c1nn(C)c2c1C(C)(C)Cc1cnc(Nc3ccc(N4CCN(C)CC4)cc3)nc1-2 [Milciclib] |  |  | 107 | 105 | 76 |  | 
CC(=O)c1cnc2ccc(-c3cc(Cl)c(O)c(Cl)c3)nc2c1N[C@H]1CC[C@H](CN(C)C)CC1 [OTSSP167] |  |  | 84 | 49 | 0 |  | IC50: 86 nM
Cc1nc(Nc2[nH]nc3c2CN(C(=O)N[C@H](CN(C)C)c2ccccc2)C3(C)C)c2sccc2n1 [PF3758309] |  |  | 95 | 78 | 71 |  | 
CC(=O)NCC(=O)N1[C@@H]2CC[C@H]1c1ccc(Nc3ncc(C(F)(F)F)c(NC4CCC4)n3)cc12 [PF03814735] | 92 | 20 |  |  |  | 70 | IC50: 227 nM
Cc1[nH]c(/C=C2\C(=O)Nc3ccc(S(=O)(=O)Cc4c(Cl)cccc4Cl)cc32)c(C)c1C(=O)N1CCC[C@@H]1CN1CCCC1 [PHA665752] |  |  | 109 | 93 | 67 |  | 
C1=C/COCc2cc(ccc2OCCN2CCCC2)Nc2nccc(n2)-c2cccc(c2)COC/1 [Pacritinib] |  |  | 96 | 78 | 31 |  | 
CCOc1cc2ncc(C#N)c(Nc3ccc(F)c(Cl)c3)c2cc1NC(=O)/C=C/CN(C)C [Pelitinib] |  |  | 100 | 84 | 60 |  | 
CNC(=O)c1cc(Oc2ccc(NC(=O)Nc3cc(C(C)(C)C)nn3-c3ccc4ncccc4c3)c(F)c2)ccn1 [Rebasitinib] | 95 | 81 |  |  |  | 93 | 
Cn1cc(C2=C(c3cn(CCCSC(=N)N)c4ccccc34)C(=O)NC2=O)c2ccccc21 [Ro 31-8220] | 100 | 85 |  |  |  | 100 | 
O=C1NC(=NCc2cccs2)S/C1=C\c1ccc2ncccc2c1 [Ro 3306] | 94 | 88 |  |  |  | 94 | 
O=C1NC(=O)c2c1c1c3ccccc3n3c1c1c2c2ccccc2n1C1CCC3O1 [SB 218078] | 98 | 64 |  |  |  | 86 | 
CN(C)S(=O)(=O)c1ccc2c(c1)/C(=C/c1cc3c([nH]1)CCCC3)C(=O)N2 [SU6656] |  |  | 95 | 86 | 71 |  | 
CNC(=O)c1ccccc1Nc1nc(Nc2ccc(N3CCOCC3)cc2OC)ncc1Cl [TAE226] | 104 | 90 |  |  |  | 97 | 
COc1cc(N2CCC(N3CCN(C)CC3)CC2)ccc1Nc1ncc(Cl)c(Nc2ccccc2S(=O)(=O)C(C)C)n1 [TAE684] |  |  | 97 | 87 | 42 |  | 
N#Cc1c(Oc2ccc(F)c(NC(=O)Cc3cccc(C(F)(F)F)c3)c2)ccc2nc(NC(=O)C3CC3)sc12 [TAK632] | 92 | 82 |  |  |  | 87 | 
CC(C)c1cc(CNc2nc(Nc3cc(C4CC4)[nH]n3)cc(N3CCN(C)CC3)n2)on1 [XL228] |  |  | 94 | 65 | 26 |  | 
